# Tests used:
# Assay type in all cases: in vivo, human
# [1] = test system: subjects undergoing cataract extraction with lens replacement (CELR); assay: Phase 2 MELT-300: subjects achieving procedural sedation (RSS level 2 or 3 without rescue); settings: for Subjects who achieved target sedation: Full analysis set, MELT-300, 3 mg midazolam alone, 50 mg ketamine alone, sublingual; for Subjects achieving procedural sedation: No / Subjects achieving procedural sedation: Yes: Visit 2 (Day 1), Full Analysis Set, single sublingual tablet (MELT-300; midazolam 3 mg; ketamine 50 mg)
# Description: Achievement of procedural sedation was evaluated for each subject (see TABLE 20). Success for procedural sedation for this Phase 2 study was defined as achieving target sedation level (Ramsay Sedation Scale (RSS) scale level 2 or 3) at the start of surgery without the need for rescue sedation medication, and no need for intraoperative rescue sedation medication to maintain target sedation level.
# [2] = test system: subjects undergoing cataract extraction with lens replacement (CELR); assay: Phase 2: subjects completing the surgery (and without interruption); settings: Visit 2 (Day 1); Full Analysis Set
# Description: (§1) The number of subjects achieving analgesia response (observed) in the full analysis set was determined. Success in analgesia response was defined as NPRS<4 at the available at the available four intraoperative timepoints and a failure otherwise (e.g., any interoperative pain rescue was assumed to be a failure. Results are provided in TABLE 25. The number of subjects completing the surgery is provided in TABLE 26, and the number of subjects completing the surgery without interruption is provided in TABLE 27. For this measure, subjects completing the surgery without interruption (other than rescue medication) due to pain or anxiety were considered successes. The number of subjects requiring rescue sedative medication and those requiring analgesic medication are provided in TABLES 28 and 29, respectively. For all TABLES 25-29, p-Values between pairs of treatments were calculated and are provided.
# healthy adult subjects [3] = assay: Phase 1 safety: adverse events, vital signs, laboratory values, ECG, oral cavity examination, neurocognitive assessment (SPMSQ); settings: for Mean changes from baseline in systolic and diastolic blood pressures: MELT-100 3/25 mg and 6/25 mg, each timepoint
# Description: The Investigator evaluated safety using physical and oral examinations, O2 saturation (SpO2), vital sign measurements, clinical laboratory evaluations, electrocardiograms (ECGs), reported or observed adverse events (AEs), and assessments of neurocognitive function. Subjects were monitored for any AEs from the first dose through the end of the study.
# All safety analyses were performed on data from the Safety Population. All quantitative safety data were tabulated with descriptive summary statistics, including the following: arithmetic mean, SD, median, minimum value, maximum values, and number of non-missing observations (n).
# Frequency counts and percentage were provided for categorical data. Data were summarized by treatment sequence, treatment, and/or overall, as applicable. All observed baseline/predose and postdose values were summarized by treatment when data were available. Additionally, the corresponding change from baseline/predose assessment to each postdose assessment were also summarized by treatment. All tabulations involving change from baseline/predose comparisons included only those subjects with data at both the baseline/predose and postdose assessments.
# Adverse events were coded using the Medical Dictionary for Regulatory Activities (MedDRA, version 22.0, or later) terms and summarized by system organ class (SOC) and preferred term (PT) within SOC. The number and percentage of subjects reporting TEAEs were summarized by reported SOC and PT for each treatment and the population overall. TEAEs were also summarized by maximum severity and nearest relationship to study drug, by SOC and PT for each treatment.
# A by-subject AE (including treatment-emergent) data listing, including but not limited to verbatim term, SOC, PT, severity, and relationship to study treatment, was provided. Deaths, SAEs, and other significant AEs, including those leading to early termination of study treatments were listed.
# Vital signs, clinical laboratory values (hematology, serum chemistry, and urinalysis), and 12-lead ECG parameters were summarized by treatment including any abnormal values flagged.
# Physical examination and oral cavity examination data at each evaluation were listed. […] Weight and height were summarized. Neurocognitive assessments for each evaluation were listed.
# [4] = test system: subjects undergoing cataract extraction with lens replacement (CELR); assay: Phase 2: subjects achieving analgesia response (NPRS < 4); settings: Full Analysis Set; for Subjects achieving analgesia response (observed): Yes: NPRS < 4 at the available four intraoperative timepoints
# Description: as §1
# [5] = test system: subjects undergoing cataract extraction with lens replacement (CELR); assay: Phase 2: subject-rated worst pain during surgery by the numeric pain rating scale; settings: Full Analysis Set; for Worst Pain During Surgery (NPRS), Mean / Worst Pain During Surgery (NPRS), Median: carry forward, MELT-300, midazolam 3 mg, ketamine 50 mg
# [6] = test system: subjects undergoing cataract extraction with lens replacement (CELR); assay: Phase 2: subjects receiving opioid concomitant medication postoperatively; settings: Full Analysis Set; percent of subjects
# healthy adult subjects [7] = assay: Phase 1 pharmacodynamics: sedation by Ramsay sedation scale (RSS); settings: for Subjects with RSS score of 2: 5 minutes after administration
# Description: Pharmacodynamic parameters included sedation, defined as time to onset of sedation and sedation level, assessed using the Ramsay sedation scale (RSS), and cardiodynamics assessed by QTcF, heart rate, and PR and QRS intervals, and T-wave morphology and U-wave presence, extracted from ECGs collected via Holter monitor from predose through 24 hours postdose.
# All pharmacodynamic analyses were performed on data from the Safety Population. The RSS scores were summarized by treatment and by timepoint. Time to onset of sedation was summarized by treatment and presented graphically.
# [8] = midazolam 3.5 mg IV, ketamine 18 mg IV
# [9] = 5-minute postdose timepoint, ketamine 18 mg IV
Compound,Subjects who achieved target sedation [1],Subjects achieving procedural sedation: No [1],Subjects achieving procedural sedation: Yes [1],Subjects completing the surgery: No [2],Subjects completing the surgery: Yes [2],Mean changes from baseline in systolic and diastolic blood pressures (healthy adult subjects [3]; [8]),Subjects achieving analgesia response (observed): No [4],Subjects achieving analgesia response (observed): Yes [4],Worst pain: Mean Difference versus Placebo [5],"Worst Pain During Surgery (NPRS), Mean [5]","Worst Pain During Surgery (NPRS), Median [5]","Received Postoperative Opioid on Day 2-8: No, % [6]","Received Postoperative Opioid on Day 2-8: Yes, % [6]","Received Postoperative Opioid on Day 2: No, % [6]","Received Postoperative Opioid on Day 2: Yes, % [6]",Subjects with RSS score of 2 (healthy adult subjects [7]; [8]),Highest proportion of subjects with RSS scores >2 postdose (healthy adult subjects [7]; [8]),other results
"Cc1ncc2n1-c1ccc(Cl)cc1C(c1ccccc1F)=NC2 [Midazolam, 8-chloro-6-(2-fluorophenyl)-1-methyl-4H-imidazo[1,5-a][1,4]benzodiazepine]",64.2%,29 (35.8) n (%),52 (64.2) n (%),0 (0) n (%),81 (100.0) n (%),minimal and similar,48 (59.3) n (%),33 (40.7) n (%),0.05,4.0,4.0,(100.0) %,(0.0) %,(100.0) %,(0.0) %,91.7%,~54%,"PR duration (one subject) (healthy adult subjects [3]; 24 hours after midazolam 3.5 mg IV in Period 4, not considered clinically significant): abnormal; Subjects with treatment-related AEs (healthy adult subjects [3]; midazolam 3.5 mg IV): 8.3%; Treatment-related AEs, number of events (healthy adult subjects [3]; midazolam 3.5 mg IV): 2 events; Mean change from baseline in pulse oximetry (healthy adult subjects [3]; midazolam 3.5 mg IV at 10-minute postdose, MELT-100 6/50 mg at 30-minute postdose): small mean decrease from baseline; Worst pain: Mean Difference versus Ketamine ([5]; versus ketamine 50 mg): 0.38; Subjects with RSS scores of 3 (healthy adult subjects [7]; 5-minute postdose timepoint, midazolam 3.5 mg IV): 8.3%"
"CNC1(c2ccccc2Cl)CCCCC1=O (stereo not shown) [Ketamine, 2-(2-chlorophenyl)-2-(methylamino)cyclohexanone]",63.3%,29 (36.7) n (%),50 (63.3) n (%),0 (0) n (%),79 (100.0) n (%),highest at the 10-minute timepoint,40 (50.6) n (%),39 (49.4) n (%),−0.33,3.7,4.0,(100.0) %,(0.0) %,(100.0) %,(0.0) %,92.0%,~8%,"Treatment-related AEs of hypertension, number (healthy adult subjects [3]; ketamine 18 mg IV): 3; Subjects with RSS score of 1 (healthy adult subjects [7]; [9]): 4.0%; Subjects with RSS score of 5 (healthy adult subjects [7]; [9]): 4.0%"

# From patent publication US20250381198A1 (Melt Pharmaceuticals, Inc., priority 2024, published 2025)
